Measured values: ChEMBL document CHEMBL3046288, “Effect of isoxaflutole on the growth, nodulation and nitrogen fixation of chickpea (Cicer arietinum L.)” (Crop Prot, 2009)

Tests used:
Type in all cases: organism-based
Cicer arietinum [1] = assay: Toxicity in drug-sensitive Cicer arietinum (chickpea) assessed as effect on plant height at 75 g/ha after 42 days (reference value: 21.8 cm); conditions: in vivo, 1008 h
Cicer arietinum [2] = assay: Toxicity in drug-sensitive Cicer arietinum (chickpea) assessed as effect on shoot dry weight per pot at 75 g/ha after 42 days in presence of 1.5 mM of nitrate (reference value: 0.38 gram); conditions: in vivo, 1008 h
Cicer arietinum [3] = assay: Toxicity in drug-tolerant Cicer arietinum (chickpea) assessed as effect on plant height at 75 g/ha after 42 days (reference value: 21.4 cm); conditions: in vivo, 1008 h
Cicer arietinum [4] = assay: Toxicity in drug-sensitive Cicer arietinum (chickpea) assessed as effect on average nodule weight at 75 g/ha after 42 days (reference value: 1.31 mg); conditions: in vivo, 1008 h
Cicer arietinum [5] = assay: Toxicity in drug-sensitive Cicer arietinum (chickpea) assessed as effect on amount of fixed nitrogen level per gram of plant dry weight at 75 g/ha after 42 days (reference value: 5.5 mg); conditions: in vivo, 1008 h
Cicer arietinum [6] = assay: Toxicity in drug-tolerant Cicer arietinum (chickpea) assessed as effect on root dry weight per pot at 75 g/ha after 42 days (reference value: 0.30 gram); conditions: in vivo, 1008 h
Cicer arietinum [7] = assay: Toxicity in drug-sensitive Cicer arietinum (chickpea) assessed as effect on shoot dry weight per pot at 75 g/ha after 42 days (reference value: 0.50 gram); conditions: in vivo, 1008 h
Cicer arietinum [8] = assay: Toxicity in drug-tolerant Cicer arietinum (chickpea) assessed as effect on root nitrogen level per gram of root dry weight at 75 g/ha after 42 days (reference value: 12.1 mg); conditions: in vivo, other, 1008 h
Cicer arietinum [9] = assay: Toxicity in drug-tolerant Cicer arietinum (chickpea) assessed as effect on total nitrogen level per gram of plant dry weight at 75 g/ha after 42 days (reference value: 31.1 mg); conditions: in vivo, 1008 h
Cicer arietinum [10] = assay: Toxicity in drug-sensitive Cicer arietinum (chickpea) assessed as effect on total nitrogen level per gram of plant dry weight at 75 g/ha after 42 days (reference value: 34.5 mg); conditions: in vivo, 1008 h
Cicer arietinum [11] = assay: Toxicity in drug-tolerant Cicer arietinum (chickpea) assessed as effect on shoot dry weight per pot at 75 g/ha after 42 days in presence of 1.5 mM of nitrate (reference value: 0.50 gram); conditions: in vivo, 1008 h
Cicer arietinum [12] = assay: Toxicity in drug-tolerant Cicer arietinum (chickpea) assessed as effect on amount of fixed nitrogen level per gram of plant dry weight at 75 g/ha after 42 days (reference value: 5.5 mg); conditions: in vivo, 1008 h
Cicer arietinum [13] = assay: Toxicity in drug-sensitive Cicer arietinum (chickpea) assessed as effect on root nitrogen level per gram of root dry weight at 75 g/ha after 42 days (reference value: 13.4 mg); conditions: in vivo, 1008 h
Cicer arietinum [14] = assay: Toxicity in drug-tolerant Cicer arietinum (chickpea) assessed as effect on shoot dry weight per pot at 75 g/ha after 42 days (reference value: 0.53 gram); conditions: in vivo, 1008 h
Cicer arietinum [15] = assay: Toxicity in drug-sensitive Cicer arietinum (chickpea) assessed as effect on amount of fixed nitrogen level per gram of plant dry weight at 75 g/ha after 42 days in presence of 1.5 mM of nitrate (reference value: 6 mg); conditions: in vivo, 1008 h
Cicer arietinum [16] = assay: Toxicity in drug-tolerant Cicer arietinum (chickpea) assessed as effect on nodule dry weight per gram of root dry weight at 75 g/ha after 42 days (reference value: 209.7 mg); conditions: in vivo, other, 1008 h
Cicer arietinum [17] = assay: Toxicity in drug-tolerant Cicer arietinum (chickpea) assessed as effect on average nodule weight at 75 g/ha after 42 days (reference value: 1.21 mg); conditions: in vivo, 1008 h
Cicer arietinum [18] = assay: Toxicity in drug-tolerant Cicer arietinum (chickpea) assessed as effect on amount of fixed nitrogen level per gram of plant dry weight at 75 g/ha after 42 days in presence of 1.5 mM of nitrate (reference value: 5.9 mg); conditions: in vivo, 1008 h
Cicer arietinum [19] = assay: Toxicity in drug-sensitive Cicer arietinum (chickpea) assessed as effect on root dry weight per pot at 75 g/ha after 42 days (reference value: 0.26 gram); conditions: in vivo, 1008 h
Cicer arietinum [20] = assay: Toxicity in drug-sensitive Cicer arietinum (chickpea) assessed as effect on nodule dry weight per gram of root dry weight at 75 g/ha after 42 days (reference value: 258 mg); conditions: in vivo, 1008 h

## CS(=O)(=O)c1cc(C(F)(F)F)ccc1C(=O)c1cnoc1C1CC1 [ISOXAFLUTOLE]
Cicer arietinum [1]
  Activity: 15.5 cm
Cicer arietinum [2]
  Activity: 0.51 g
Cicer arietinum [3]
  Activity: 20.6 cm
Cicer arietinum [4]
  Activity: 0.76 mg
Cicer arietinum [5]
  Activity: 3.5 mg
Cicer arietinum [6]
  Activity: 0.27 g
Cicer arietinum [7]
  Activity: 0.39 g
Cicer arietinum [8]
  Activity: 11.1 mg
Cicer arietinum [9]
  Activity: 30.1 mg
Cicer arietinum [10]
  Activity: 27.4 mg
Cicer arietinum [11]
  Activity: 0.54 g
Cicer arietinum [12]
  Activity: 3.7 mg
Cicer arietinum [13]
  Activity: 8.1 mg
Cicer arietinum [14]
  Activity: 0.51 g
Cicer arietinum [15]
  Activity: 4.6 mg
Cicer arietinum [16]
  Activity: 174.9 mg
Cicer arietinum [17]
  Activity: 1.16 mg
Cicer arietinum [18]
  Activity: 3.1 mg
Cicer arietinum [19]
  Activity: 0.13 g
Cicer arietinum [20]
  Activity: 123.7 mg
